The values that follow come from US7408065B2, “P2X7 receptor antagonists and their use” (AstraZeneca AB, priority 2003, dated 2008).

Where a name gives a salt, the structure may show the parent alone. Bounds are passed on as bounds.

In the case of `O=C(NCCC1CCCCC1)c1c(Cl)ccc2nc(N3CCC(c4nnn[nH]4)CC3)ccc12` [Example 111, 6-Chloro-N-(2-cyclohexylethyl)-2-[4-(1H-tetrazol-5-yl)-1-piperidinyl]-5-quinolinecarboxamide], the melting point (commonly the temperature, or range, at which the solid turns liquid) fell in the range of 252 to 255 °C.

`O=C(CC1CCCCC1)Nc1c(Cl)ccc2nc(N3CC[C@H](O)C3)ccc12` [Example 29, N-[6-Chloro-2-[(3S)-3-hydroxy-1-pyrrolidinyl]-5-quinolinyl]-cyclohexaneacetamide] showed a melting point of 219 to 221 °C.

Consider `CC1(CC(=O)Nc2cccc3ncccc23)CCCCC1` [Example 19, 1-Methyl-N-5-quinolinyl-cyclohexaneacetamide], for which the melting point lay in the range of 133 to 135 °C.

Take `O=C(CC1CCCCC1)Nc1c(Cl)ccc2nc(NCCNCCO)ccc12` (as salt: hydrochloride) [Example 17, N-[6-Chloro-2-[[2-[(2-hydroxyethyl)amino]ethyl]amino]-5-quinolinyl]-cyclohexaneacetamide, Dihydrochloride]: the melting point is 238 to 240 °C.

`CNC1CCCN(c2ccc3c(NC(=O)CC4CCCCC4)c(Cl)ccc3n2)C1` (centres unmarked) [Example 82, N-[6-Chloro-2-[3-(methylamino)-1-piperidinyl]-5-quinolinyl]-cyclohexaneacetamide] came in with a melting point of 158 to 159 °C.

Turning to `CCNCCCc1ccc2c(NC(=O)CC3CCCCC3)c(Cl)ccc2n1` (as salt: hydrochloride), the melting point lay within 152 to 155 °C.

In turn, `O=C(CC1CCCCC1)Nc1c(Cl)ccc2nc(CC3CCNCC3)ccc12` (as salt: hydrochloride) registered a melting point of 170 to 175 °C.

In turn, `O=C(CC1CCCCC1)Nc1cccc2ncccc12` [Example 18, N-5-Quinolinyl-cyclohexaneacetamide] came in with a melting point of 183 to 184 °C.

`C[C@@H]1CN(c2ccc3c(NC(=O)CC4CCCCC4)c(Cl)ccc3n2)C[C@H](C)N1` [Example 11] yielded a melting point of 250 to 252 °C.

Consider `CC(C)(C)OC(=O)N(CCO)[C@H]1CCN(c2ccc3c(NC(=O)CC4CCCCC4)c(Cl)ccc3n2)C1` [Example 56, [1-[6-Chlor-5-[(cyclohexylacetyl)amino]-2-quinolinyl]-3-pyrrolidinyl](2-hydroxyethyl)-carbamic Acid 1,1-dimethylethyl Ester], for which the melting point is 115 to 120 °C.

In turn, `O=C(CC1CCCCC1)Nc1c(Cl)ccc2nc(N3CC[C@H](NCCO)C3)ccc12` [Example 36, N-[6-Chloro-2-[(3S)-3-[(2-hydroxyethyl)amino]-1-pyrrolidinyl]-5-quinolinyl]-cyclohexaneacetamide] registered a melting point of 194 to 196 °C.

Consider `NC1CCN(c2ccc3c(NC(=O)CC4CCCCC4)c(Cl)ccc3n2)CC1` [Example 32, N-[2-(4-Amino-1-piperidinyl)-6-chloro-5-quinolinyl]-cyclohexaneacetamide], for which the melting point lay within 333 to 334 °C.

On to `O=C(CC1CCCCC1)Nc1c(Cl)ccc2nc(N3CC[C@H](OCCc4nnn[nH]4)C3)ccc12` [Example 107, N-[6-Chloro-2-[(3S)-3-[2-(1H-tetrazol-5-yl)ethoxy]-1-pyrrolidinyl]-5-quinolinyl]-cyclohexaneacetamide], for which the melting point lay in the range of 177 to 181 °C.

Turning to `N[C@H]1CCN(c2ccc3c(C(=O)NCC4CCCCC4)cccc3n2)C1` [Example 54, 2-[(3S)-3-Amino-1-pyrrolidinyl]-N-(cyclohexylmethyl)-5-quinolinecarboxamide], the melting point lay within 127 to 128 °C.

Turning to `O=C(O)CCCNc1ccc2c(NC(=O)CC3CCCCC3)c(Cl)ccc2n1` [Example 7, 4-[[6-Chlor-5-[(cyclohexylacetyl)amino]-2-quinolinyl]amino]-butanoic Acid], the melting point is 248 to 250 °C.

`N[C@H]1CCCN(c2ccc3c(NC(=O)CC4CCCCC4)c(Cl)ccc3n2)C1` [Example 60, N-[2-[(3S)-3-Amino-1-piperidinyl]-6-chloro-5-quinolinyl]-cyclohexaneacetamide] yielded a melting point of 173 to 176 °C.

In turn, `Cc1ccc2nc(N3CC[C@H](N)C3)ccc2c1NC(=O)CC1CCCCC1` [Example 38, N-[2-[(3S)-3-Amino-1-pyrrolidinyl]-6-methyl-5-quinolinyl]-cyclohexaneacetamide] returned a melting point of 223 to 224 °C.

Turning to `O=C(CC1CCCCC1)Nc1c(Cl)ccc2nc(N3CCCC3CNCCO)ccc12` (centres unmarked) [Example 81, N-[6-Chloro-2-[2-[[(2-hydroxyethyl)amino]methyl]-1-pyrrolidinyl]-5-quinolinyl]-cyclohexaneacetamide], the melting point was 157 to 158 °C.

As for `CN1CCN(c2ccc3c(NC(=O)CC4CCCCC4)c(Cl)ccc3n2)CC1` (as salt: hydrochloride), the melting point is 270 °C (dec.).

For `CCNCCCc1ccc2c(NC(=O)CC3CCCCC3)c(C)ccc2n1` (as salt: hydrochloride) [Example 15, N-[2-[3-(Ethylamino)propyl]-6-methyl-5-quinolinyl]-cyclohexaneacetamide, Dihydrochloride], the melting point is 231 to 234 °C.

Take `O=C(CC1CCC(C(F)(F)F)CC1)Nc1c(Cl)ccc2nc(N3CCNCC3)ccc12` (centres unmarked) [Example 9, N-[6-Chloro-2-(1-piperazinyl)-5-quinolinyl]-4-(trifluoromethyl)-cyclohexaneacetamide]: the melting point fell in the range of 186 to 190 °C.

Turning to `O=C(NCCC1CCCCC1)c1c(Cl)ccc2nc(N3CCC(C(=O)O)CC3)ccc12` [Example 76, 1-[6-Chloro-5-[[(2-cyclohexylethyl)amino]carbonyl]-2-quinolinyl]-4-piperidinecarboxylic Acid], the melting point fell in the range of 253 to 256 °C.

With `O=C(CC1CCCCC1)Nc1c(Cl)ccc2nc(N3C[C@@H]4C[C@H]3CN4)ccc12` (as salt: acetate) [Example 13, N-[6-Chloro-2-[(1S,4S)-2,5-diazabicyclo[2.2.1]hept-2-yl]-5-quinolinyl]-cyclohexaneacetamide, Acetate], the melting point was 120 °C (dec.).

`N#CC1CCN(c2ccc3c(NC(=O)CC4CCCCC4)c(Cl)ccc3n2)CC1` [Example 113, N-[6-Chloro-2-(4-cyan-1-piperidinyl)-5-quinolinyl]-cyclhexaneacetamide]: the melting point lay in the range of 235 to 237 °C.

Compound `O=C(NCC1CCCCC1)c1c(Cl)ccc2nc(CCCCc3nnn[nH]3)ccc12` [Example 106, 6-Chloro-N-(cyclohexylmethyl)-2-[4-(1H-tetrazol-5-yl)butyl]-5-quinolinecarboxamide] came in with a melting point of 90 to 93 °C.

On to `O=C(CC1CCCCC1)Nc1c(Cl)ccc2nc(N3CCCC(NCCO)C3)ccc12` (centres unmarked) [Example 80, N-[6-Chloro-2-[3-[(2-hydroxyethyl)amino]-1-piperidinyl]-5-quinolinyl]-cyclohexaneacetamide], for which the melting point lay within 185 to 186 °C.

Compound `O=C(CC1CCCCC1)Nc1c(Cl)ccc2nc(N3CCC[C@H](NCCO)C3)ccc12` [Example 61, N-[6-Chloro-2-[(3S)-3-[(2-hydroxyethyl)amino]-1-piperidinyl]-5-quinolinyl]-cyclohexaneacetamide] showed a melting point of 182 to 183 °C.

Compound `O=C(O)CC1CCN(c2ccc3c(C(=O)NCC4CCCCC4)c(Cl)ccc3n2)CC1` (as salt: trifluoroacetate) showed a melting point of 79 to 83 °C.

For `CNCC1CCCN1c1ccc2c(NC(=O)CC3CCCCC3)c(Cl)ccc2n1` (centres unmarked) [Example 83, N-[6-Chloro-2-[2-[(methylamino)methyl]-1-pyrrolidinyl]-5-quinolinyl]-cyclohexaneacetamide], the melting point lay in the range of 138 to 145 °C.

`CNCCCN(C)c1ccc2c(NC(=O)CC3CCC(C(F)(F)F)CC3)c(Cl)ccc2n1` (centres unmarked) (as salt: hydrochloride): the melting point was 250 °C (dec.).

For the compound `O=C(O)CNc1ccc2c(NC(=O)CC3CCCCC3)c(Cl)ccc2n1` [Example 40, N-[6-Chloro-5-[(cyclohexylacetyl)amino]-2-quinolinyl]-glycine], the melting point is 222 to 225 °C (dec.).

In the case of `O=C(CC1CCCCC1)Nc1c(Cl)ccc2nc(CCCc3nnn[nH]3)ccc12` (as salt: trifluoroacetate), the melting point lay within 140 to 145 °C.

Take `O=C(CC1CCCCC1)Nc1c(Cl)ccc2nc(CCCCc3nnn[nH]3)ccc12` [Example 105, N-[6-Chloro-2-[4-(1H-tetrazol-5-yl)butyl]-5-quinolinyl]-cyclohexaneacetamide]: the melting point was in the range of 192 to 195 °C.

`O=C(O)CN[C@H]1CCN(c2ccc3c(NC(=O)CC4CCCCC4)c(Cl)ccc3n2)C1` [Example 85, N-[(3S)-1-[6-Chloro-5-[(cyclohexylacetyl)amino]-2-quinolinyl]-3-pyrrolidinyl]-glycine] showed a melting point of 257 to 259 °C.

As for `O=C(CC1CCCCC1)Nc1c(Cl)ccc2nc(N3CCCNCC3)ccc12` [Example 10, N-[6-Chlor-2-(hexahydro-1H-1,4-diazepin-1-yl)-5-quinolinyl]-cyclohexaneacetamide], the melting point fell in the range of 186 to 188 °C.

In turn, `N[C@H]1CCN(c2ccc3c(NC(=O)CCC4CCCC4)c(Cl)ccc3n2)C1` [Example 62, N-[2-[(3S)-3-Amin-1-pyrrolidinyl]-6-chloro-5-quinlinyl]-cyclopentanepropanamide] had a melting point of 192 to 194 °C.

Regarding `O=C(O)CCCc1ccc2c(NC(=O)CC3CCCCC3)c(Cl)ccc2n1` [Example 67, 6-Chloro-5-[(cyclohexylacetyl)amino]-2-quinolinebutanoic Acid], the melting point lay in the range of 216 to 220 °C.

As for `O=C(CC1CCCCC1)Nc1c(Cl)ccc2nc(N3CCNCC3)ccc12` (as salt: hydrochloride), the melting point is more than 250 °C.

Regarding `O=C(CC1CCCCC1)Nc1c(Cl)ccc2nc(N3CC[C@@H](NCCO)C3)ccc12` [Example 34, N-[6-Chloro-2-[(3R)-3-[(2-hydroxyethyl)amino]-1-pyrrolidinyl]-5-quinolinyl]-cyclohexaneacetamide], the melting point fell in the range of 197 to 199 °C.

In the case of `Cc1ccc2ncccc2c1C(=O)NCC1CCCCC1` [Example 57, N-(Cyclohexylmethyl)-6-methyl-5-quinolinecarboxamide], the melting point was 165 °C.

Turning to `NCCCc1ccc2c(NC(=O)CC3CCCCC3)c(Cl)ccc2n1` [Example 23, N-[2-(3-Aminopropyl)-6-chloro-5-quinolinyl]-cyclohexaneacetamide], the melting point is 121 to 130 °C.
